This assay deals with CD2F1 mice, L1210 leukemia ip, survival T/C. Nature of the assay: NCI In Vivo Anticancer Drug Screen. Data for tumor model L1210 Leukemia (intraperitoneal) in CD2F1 (CDF1) mice. The conditions noted are these: higher = longer survival. The method, then: The antitumor activity of compounds was measured in mice bearing transplantable tumors. Survival or tumor size were measured and the results are expressed as the measurement made in the treated group (T) divided by the measurement made in the vehicle treated control group (C). The tumor model used in this assay is L1210 Leukemia (intraperitoneal) in CD2F1 (CDF1) mice

[1] abbreviates: endpoint: mean survival time, dose: 100.0 mg/kg/injection, schedule: Q04DX002 (ip), vehicle: saline with Tween-80.
[2] abbreviates: endpoint: mean survival time, dose: 400.0 mg/kg/injection, schedule: Q04DX002 (ip), vehicle: saline with Tween-80.
[3] abbreviates: endpoint: mean survival time, dose: 100.0 mg/kg/injection, schedule: Q01DX009 (ip), vehicle: saline with Tween-80.
Setting [4] is: endpoint: mean survival time, dose: 200.0 mg/kg/injection, schedule: Q01DX009 (ip), vehicle: saline with Tween-80.
Setting [5] is: endpoint: mean survival time, dose: 200.0 mg/kg/injection, schedule: Q04DX003 (ip), vehicle: saline with Tween-80.
[6] abbreviates: endpoint: mean survival time, dose: 400.0 mg/kg/injection, schedule: Q04DX003 (ip), vehicle: saline with Tween-80.
Setting [7] is: endpoint: mean survival time, dose: 6.25 mg/kg/injection, schedule: Q01DX009 (ip), vehicle: saline.
Where [8] appears, read: endpoint: mean survival time, dose: 12.5 mg/kg/injection, schedule: Q01DX009 (ip), vehicle: saline.
The mark [9] stands for this setting: endpoint: mean survival time, dose: 100.0 mg/kg/injection, schedule: Q04DX003 (ip), vehicle: saline with Tween-80.

The record followed here is PubChem BioAssay AID256 (DTP/NCI, 2004).

“And” between values parts separate entries of the source, which are not always exact repeats. Identical values can stand only once. Inconclusive results and toxic doses are left out.

For the molecule `COc1ccc(COc2ccc([N+](=O)[O-])cc2)cc1`, the T/C is, setting by setting: under setting [1], 87 % of control; under setting [2], 87 % of control.

As to `CCCCCCCCCCCCCCCCOc1ccc(-c2cc(Cl)c3cc(S(=O)(=O)F)ccc3n2)cc1S(=O)(=O)F`, the T/C is 97 % of control under setting [3], 98 % of control under setting [4], 87 % of control under setting [5] and 95 % of control under setting [6].

In the case of `CCCCn1ccnc1C`, the T/C by setting is: under setting [7], 102 % of control; (endpoint: mean survival time, dose: 6.25 mg/kg/injection, schedule: Q04DX003 (ip), vehicle: saline) 94 % of control; under setting [8], 103 % of control; (endpoint: mean survival time, dose: 12.5 mg/kg/injection, schedule: Q04DX003 (ip), vehicle: saline) 94 % of control; (endpoint: mean survival time, dose: 25.0 mg/kg/injection, schedule: Q01DX009 (ip), vehicle: saline) 103 % of control; (endpoint: mean survival time, dose: 25.0 mg/kg/injection, schedule: Q04DX003 (ip), vehicle: saline) 94 % of control.

Turning to `CCCC[N+](CCCC)(CCCC)CCCC.[Cl-].[Cl-].[Cl-].[Cl-].[Cl-].[Cl-].[Cl-].[Cl-].[Re].[Re]`, the T/C is, setting by setting: under setting [1], 112 % of control; (endpoint: mean survival time, dose: 200.0 mg/kg/injection, schedule: Q04DX002 (ip), vehicle: saline with Tween-80) 112 % of control; under setting [2], 116 % of control.

Turning to `CCCNC(=O)Oc1cccc(NC(=O)CC)c1`, the T/C is, setting by setting: under setting [3], 96 % of control; (endpoint: mean survival time, dose: 400.0 mg/kg/injection, schedule: Q01DX009 (ip), vehicle: saline with Tween-80) 89 % of control.

Regarding `CCCCCCCCCCCCCCCC(=O)O[C@@]12C[C@@H](C)[C@@]3(O)[C@@H](C=C(CO)C[C@]4(O)C(=O)C(C)=C[C@@H]34)[C@@H]1C2(C)C`, the T/C was 98 % of control (endpoint: mean survival time, dose: 0.06 mg/kg/injection, schedule: Q01DX009 (ip), vehicle: other); 103 % of control (endpoint: mean survival time, dose: 0.12 mg/kg/injection, schedule: Q01DX009 (ip), vehicle: saline); 88 % of control (endpoint: mean survival time, dose: 0.13 mg/kg/injection, schedule: Q01DX009 (ip), vehicle: other); 94 % of control (endpoint: mean survival time, dose: 0.25 mg/kg/injection, schedule: Q01DX009 (ip), vehicle: other); 102 % of control (endpoint: mean survival time, dose: 0.25 mg/kg/injection, schedule: Q01DX009 (ip), vehicle: saline); 102 % of control (endpoint: mean survival time, dose: 0.5 mg/kg/injection, schedule: Q01DX009 (ip), vehicle: other). The T/C runs as follows: (endpoint: mean survival time, dose: 0.5 mg/kg/injection, schedule: Q01DX009 (ip), vehicle: saline) 103 % of control; (endpoint: mean survival time, dose: 1.0 mg/kg/injection, schedule: Q01DX009 (ip), vehicle: saline) 102 % of control.

Take `CNC(C)COc1ccc(O)cc1` (centres undefined): the T/C was 110 % of control (endpoint: mean survival time, dose: 100.0 mg/kg/injection, schedule: Q01DX009 (ip), vehicle: saline); 108 % of control (endpoint: mean survival time, dose: 100.0 mg/kg/injection, schedule: Q04DX003 (ip), vehicle: saline); 110 % of control (endpoint: mean survival time, dose: 200.0 mg/kg/injection, schedule: Q01DX009 (ip), vehicle: saline); 104 % of control (endpoint: mean survival time, dose: 200.0 mg/kg/injection, schedule: Q04DX003 (ip), vehicle: saline); 114 % of control (endpoint: mean survival time, dose: 400.0 mg/kg/injection, schedule: Q04DX003 (ip), vehicle: saline).

For `O=C(Nc1ccc(N(CCCl)CCCl)cc1)c1ccccc1`, the T/C is 96 % of control (endpoint: mean survival time, dose: 100.0 mg/kg/injection, schedule: Q04DX003 (ip), vehicle: Klucel (hydroxypropylcellulose) (HPC)); 101 % of control (endpoint: mean survival time, dose: 200.0 mg/kg/injection, schedule: Q04DX003 (ip), vehicle: Klucel (hydroxypropylcellulose) (HPC)); 109 % of control (endpoint: mean survival time, dose: 400.0 mg/kg/injection, schedule: Q04DX003 (ip), vehicle: Klucel (hydroxypropylcellulose) (HPC)).

For `Cn1cnc(C(=N)[Se])c1N`, the T/C runs as follows: (endpoint: mean survival time, dose: 0.78 mg/kg/injection, schedule: Q01DX005 (ip), vehicle: water) 90 % of control; (endpoint: mean survival time, dose: 1.56 mg/kg/injection, schedule: Q01DX005 (ip), vehicle: water) 102 % of control; (endpoint: mean survival time, dose: 3.13 mg/kg/injection, schedule: Q01DX005 (ip), vehicle: water) 100 % of control; (endpoint: mean survival time, dose: 6.25 mg/kg/injection, schedule: Q01DX005 (ip), vehicle: water) 90 % of control; (endpoint: mean survival time, dose: 12.5 mg/kg/injection, schedule: Q01DX005 (ip), vehicle: water) 100 % of control.

With `CC(=O)NC(Cc1ccc(N(CCCl)CCCl)cc1)C(=O)O` (centres undefined), the T/C is 97 % of control (endpoint: mean survival time, dose: 3.12 mg/kg/injection, schedule: Q01DX009 (ip), vehicle: saline); 105 % of control under setting [7]; 118 % of control under setting [8].

For the molecule `N=C(N)c1nn(C2OC(CO)C(O)C2O)c2nc[nH]c(=O)c12` (centres undefined), the T/C reads like this: (endpoint: median survival time, dose: 3.12 mg/kg/injection, schedule: Q01DX005 (ip), vehicle: Klucel + Tween-80) 122 % of control; (endpoint: median survival time, dose: 12.5 mg/kg/injection, schedule: Q01DX005 (ip), vehicle: Klucel + Tween-80) 153 % of control; (endpoint: median survival time, dose: 25.0 mg/kg/injection, schedule: Q01DX005 (ip), vehicle: Klucel + Tween-80) 120 % of control and 89 % of control.

With `O=C(O)C1CC1`, the T/C by setting is: (endpoint: mean survival time, dose: 100.0 mg/kg/injection, schedule: Q01DX001 (ip), vehicle: saline) 96 % of control; (endpoint: mean survival time, dose: 200.0 mg/kg/injection, schedule: Q01DX001 (ip), vehicle: saline) 108 % of control.

For the molecule `CCC(/C=C/C1OC(=O)C=CC1C)=C\C(C)C/C=C/C(C)=C/C(C)C(=O)C(C)C(O)C(C)C/C(C)=C/C(=O)O` (centres undefined), the T/C was 120 % of control (endpoint: median survival time, dose: 6.25 micrograms/kg/injection, schedule: Q01DX005 (ip), vehicle: saline + alcohol); 119 % of control (endpoint: median survival time, dose: 12.5 micrograms/kg/injection, schedule: Q01DX005 (ip), vehicle: saline + alcohol); 101 % of control (endpoint: median survival time, dose: 12.5 micrograms/kg/injection, schedule: Q01DX009 (ip), vehicle: saline + alcohol); 120 % of control (endpoint: median survival time, dose: 25.0 micrograms/kg/injection, schedule: Q01DX005 (ip), vehicle: saline + alcohol); 101 % of control (endpoint: median survival time, dose: 25.0 micrograms/kg/injection, schedule: Q01DX009 (ip), vehicle: saline + alcohol); 115 % of control (endpoint: median survival time, dose: 50.0 micrograms/kg/injection, schedule: Q01DX009 (ip), vehicle: saline + alcohol).

`CCCC/C=C/C(C)O` (centres undefined): the T/C was 100 % of control (endpoint: mean survival time, dose: 50.0 mg/kg/injection, schedule: Q01DX009 (ip), vehicle: saline with Tween-80); 100 % of control under setting [3]; 98 % of control under setting [9]; 95 % of control under setting [4]; 103 % of control under setting [5]; 103 % of control under setting [6].

For `N#CC(N)=O`, the T/C reads like this: (endpoint: mean survival time, dose: 100.0 mg/kg/injection, schedule: Q04DX002 (ip), vehicle: saline) 97 % of control; (endpoint: mean survival time, dose: 200.0 mg/kg/injection, schedule: Q04DX002 (ip), vehicle: saline) 91 % of control; (endpoint: mean survival time, dose: 400.0 mg/kg/injection, schedule: Q04DX002 (ip), vehicle: saline) 94 % of control.

On to `CCCCNCCC#N`, for which the T/C runs as follows: under setting [9], 102 % of control; under setting [5], 95 % of control; under setting [6], 98 % of control.
